Experimental findings from ChEMBL document CHEMBL1124856, “Extension of a redox-based chemical delivery system to alpha, beta-unsaturated ketones” (J Med Chem, 1990) are described below.

A word on the half-life: it is how long it takes for the measured level to halve. Read a high half-life as slow loss.

“And” between values parts separate entries of the source, which are not always exact repeats. Equal entries are not always repeated.

The species entered for series [1] is Rattus norvegicus. Nature of the series: In vitro rate constant, correlation coefficient for the disappearance in rat liver homogenate. The series is classed as ADME.
The species entered for series [2] is Rattus norvegicus. Nature of the series: In vitro rate constant, correlation coefficient for the disappearance in rat brain homogenate. In kind it is ADME.
Series [3] is described as follows: Half-life for the disappearance in rat brain homogenate. In kind it is ADME.
Series [4] is described as follows: Half-life for the disappearance in rat liver homogenate. In kind it is ADME.
The species named for series [5] is Homo sapiens. Put plainly: Half-life for the disappearance in whole human blood; Stable. In kind it is ADME, organism-based. The conditions noted are these: in vitro.
Series [6] is filed under the species Homo sapiens. Nature of the series: In vitro rate constant, correlation coefficient for the disappearance in whole human blood; Stable.
Series [7] is filed under the species Rattus norvegicus. Nature of the series: In vitro rate constant, correlation coefficient for the conversion to progesterone in rat liver homogenate. In kind it is ADME.
For series [8], the species on record is Rattus norvegicus. Put plainly: In vitro rate constant, correlation coefficient for the conversion to progesterone in whole rat blood. The series is classed as ADME, organism-based.

As to `CC(=O)C1CCC2C3CC=C4C=C(OC(=O)C5=CN(C)C=CC5)CCC4(C)C3CCC12C` (stereo not drawn), the Correlation coefficient in series [1] is 0.999; in series [2] it was 0.98. The half-life in series [3] was 106 min; in series [4], 16 min. The T1/2 entry in series [5] and in series [6] was “Stable” in each case.

In the case of `CC(=O)C1CCC2C3CC=C4C=C(OC(=O)c5ccc[n+](C)c5)CCC4(C)C3CCC12C.[I-]` (stereo not drawn), the Correlation coefficient in series [7] was 0.996 and 0.994; in series [8] it was 0.998.
